Earlier results as cited in patent US20200138036A1, “FUMIGANT FORMULATION” (Linde Aktiengesellschaft, priority 2017, published 2020).
Structures can show the parent of a compound that is named as a salt.

Details: at 20° C.

SMILES: CCOC=O [Ethyl formate]
- vapour pressure: 25.9 kPa
